From ChEMBL document CHEMBL1147193, “New 5-substituted thiazolo[3,2-b][1,2,4]triazol-6-ones: synthesis and anticancer evaluation” (2007)

Experiments:
Type in all cases: functional
[1] = tested on: TK-10; test: Growth inhibition of human TK10 cells after 48 hrs by SRB protein assay; conditions: TK-10, 48 h; for TGI: read-out: Log TGI (converted)
[2] = tested on: RXF 393; test: Growth inhibition of human RXF393 cells after 48 hrs by SRB protein assay; conditions: RXF 393, 48 h; for TGI: read-out: Log TGI (converted)
[3] = Growth inhibition of human MALME 3M cells after 48 hrs by SRB protein assay; conditions: for TGI: read-out: Log TGI (converted)
[4] = tested on: NCI-H460; test: Growth inhibition of human NCI-H460 cells after 48 hrs by SRB protein assay; conditions: NCI-H460, 48 h; for TGI: read-out: Log TGI (converted)
[5] = tested on: BT-549; test: Growth inhibition of human BT549 cells after 48 hrs by SRB protein assay; conditions: BT-549, 48 h
[6] = tested on: ACHN; test: Growth inhibition of human ACHN cells after 48 hrs by SRB protein assay; conditions: for TGI: read-out: Log TGI (converted)
[7] = tested on: SF-268; test: Anticancer activity against human SF268 cells assessed as growth of cells at 100 uM relative to untreated cells
[8] = tested on: UACC-62; test: Growth inhibition of human UACC62 cells after 48 hrs by SRB protein assay; conditions: UACC-62, 48 h; for TGI: read-out: Log TGI (converted)
[9] = Growth inhibition of human MDA-MB-231/ATCC cells after 48 hrs by SRB protein assay; conditions: MDA-MB-231, 48 h; for TGI: read-out: Log TGI (converted)
[10] = tested on: HCT-15; test: Growth inhibition of human HCT15 cells after 48 hrs by SRB protein assay; conditions: HCT-15, 48 h; for TGI: read-out: Log TGI (converted)
[11] = tested on: CAKI-1; test: Growth inhibition of human CAKI1 cells after 48 hrs by SRB protein assay; conditions: CAKI-1, 48 h; for TGI: read-out: Log TGI (converted)
[12] = tested on: UO-31; test: Growth inhibition of human UO31 cells after 48 hrs by SRB protein assay; conditions: UO-31, 48 h; for TGI: read-out: Log TGI (converted)
[13] = tested on: HOP-62; test: Growth inhibition of human HOP62 cells after 48 hrs by SRB protein assay; conditions: HOP-62, 48 h; for TGI: read-out: Log TGI (converted)
[14] = tested on: SK-MEL-28; test: Growth inhibition of human SK-MEL-28 cells after 48 hrs by SRB protein assay; conditions: SK-MEL-28, 48 h; for TGI: read-out: Log TGI (converted)
[15] = tested on: NCI-H522; test: Growth inhibition of human NCI-H522 cells after 48 hrs by SRB protein assay; conditions: NCI-H522, 48 h; for TGI: read-out: Log TGI (converted)
[16] = tested on: HT-29; test: Growth inhibition of human HT29 cells after 48 hrs by SRB protein assay; conditions: HT-29, 48 h; for TGI: read-out: Log TGI (converted)
[17] = tested on: HCT-116; test: Growth inhibition of human HCT116 cells after 48 hrs by SRB protein assay; conditions: HCT-116, 48 h; for TGI: read-out: Log TGI (converted)
[18] = tested on: HOP-92; test: Growth inhibition of human HOP92 cells after 48 hrs by SRB protein assay; conditions: HOP-92, 48 h
[19] = tested on: SK-MEL-5; test: Growth inhibition of human SK-MEL-5 cells after 48 hrs by SRB protein assay; conditions: SK-MEL-5, 48 h; for TGI: read-out: Log TGI (converted)
[20] = tested on: RPMI-8226; test: Growth inhibition of human RPMI8226 cells after 48 hrs by SRB protein assay; conditions: RPMI-8226, 48 h; for TGI: read-out: Log TGI (converted)
[21] = tested on: NCI-H322M; test: Growth inhibition of human NCI-H322M cells after 48 hrs by SRB protein assay; conditions: for TGI: read-out: Log TGI (converted)
[22] = tested on: NCI-H460; test: Anticancer activity against human NCI-H460 cells assessed as growth of cells at 100 uM relative to untreated cells
[23] = tested on: MCF7; test: Growth inhibition of human MCF7 cells after 48 hrs by SRB protein assay; conditions: MCF7, 48 h; for TGI: read-out: Log TGI (converted)
[24] = tested on: OVCAR-8; test: Growth inhibition of human OVCAR8 cells after 48 hrs by SRB protein assay; conditions: OVCAR-8, 48 h; for TGI: read-out: Log TGI (converted)
[25] = tested on: CCRF-CEM; test: Growth inhibition of human CCRF-CEM cells after 48 hrs by SRB protein assay; conditions: for TGI: read-out: Log TGI (converted)
[26] = tested on: U-251; test: Growth inhibition of human U251 cells after 48 hrs by SRB protein assay; conditions: U-251, 48 h; for TGI: read-out: Log TGI (converted)
[27] = tested on: M14; test: Growth inhibition of human M14 cells after 48 hrs by SRB protein assay; conditions: M14, 48 h; for TGI: read-out: Log TGI (converted)
[28] = tested on: EKVX; test: Growth inhibition of human EKVX cells after 48 hrs by SRB protein assay; conditions: for TGI: read-out: Log TGI (converted)
[29] = tested on: OVCAR-3; test: Growth inhibition of human OVCAR-3 cells after 48 hrs by SRB protein assay; conditions: OVCAR-3, 48 h; for TGI: read-out: Log TGI (converted)
[30] = tested on: MCF7; test: Anticancer activity against human MCF7 cells assessed as growth of cells at 100 uM relative to untreated cells
[31] = tested on: Hs-578T; test: Growth inhibition of human HS578T cells after 48 hrs by SRB protein assay; conditions: for TGI: read-out: Log TGI (converted)
[32] = tested on: UACC-257; test: Growth inhibition of human UACC257 cells after 48 hrs by SRB protein assay; conditions: UACC-257, 48 h; for TGI: read-out: Log TGI (converted)
[33] = tested on: T47D; test: Growth inhibition of human T47D cells after 48 hrs by SRB protein assay; conditions: for TGI: read-out: Log TGI (converted)
[34] = tested on: SK-OV-3; test: Growth inhibition of human SK-OV-3 cells after 48 hrs by SRB protein assay; conditions: SK-OV-3, 48 h; for TGI: read-out: Log TGI (converted)
[35] = tested on: MDA-MB-435; test: Growth inhibition of human MDA-MB-435 cells after 48 hrs by SRB protein assay; conditions: MDA-MB-435, 48 h; for TGI: read-out: Log TGI (converted)
[36] = tested on: MOLT-4; test: Growth inhibition of human MOLT4 cells after 48 hrs by SRB protein assay; conditions: MOLT-4, 48 h
[37] = tested on: OVCAR-5; test: Growth inhibition of human OVCAR5 cells after 48 hrs by SRB protein assay; conditions: OVCAR-5, 48 h
[38] = tested on: NCI-H226; test: Growth inhibition of human NCI-H226 cells after 48 hrs by SRB protein assay; conditions: NCI-H226, 48 h
[39] = tested on: K562; test: Growth inhibition of human K562 cells after 48 hrs by SRB protein assay; conditions: K562, 48 h
[40] = tested on: HCC 2998; test: Growth inhibition of human HCC2998 cells after 48 hrs by SRB protein assay; conditions: HCC 2998, 48 h

With `O=C(CC1Sc2ncnn2C1=O)Nc1ccccc1` (centres undefined) the GI50 [1] was 19.1 µM, the TGI [1] was 39.8 µM and the GI50 [2] was 18.6 µM. For the same molecule, the TGI [2] was 42.7 µM, the GI50 [3] was 19.1 µM and the TGI [3] was 44.7 µM. The GI50 [4] was 35.5 µM, the TGI [4] was over 100 µM and the GI50 [5] was 0.339 µM. It also gave a TGI ([5]; read-out: Log TGI (converted)) of 1 µM, a GI50 [6] of 21.9 µM and a TGI [6] of 41.7 µM. For the same molecule, the Activity [7] was 110%, the GI50 [8] was over 100 µM and the TGI [8] was over 100 µM. The GI50 [9] was 19.1 µM, the TGI [9] was 38.9 µM and the GI50 [10] was 33.1 µM. For the same molecule, the TGI [10] was over 100 µM, the GI50 [11] was 23.4 µM and the TGI [11] was 49 µM. The GI50 [12] was 25.1 µM, the TGI [12] was 57.5 µM and the GI50 [13] was over 100 µM. It also gave a TGI [13] of over 100 µM, a GI50 [14] of over 100 µM and a TGI [14] of over 100 µM. For the same molecule, the GI50 [15] was 21.9 µM, the TGI [15] was 42.7 µM and the GI50 [16] was over 100 µM. For the same molecule, the TGI [16] was over 100 µM, the GI50 [17] was 32.4 µM and the TGI [17] was over 100 µM. For the same molecule, the GI50 [18] was 25.1 µM, the TGI ([18]; read-out: Log TGI (converted)) was 66.1 µM and the GI50 [19] was 22.9 µM. For the same molecule, the TGI [19] was 47.9 µM, the GI50 [20] was 20.9 µM and the TGI [20] was 64.6 µM. For the same molecule, the GI50 [21] was over 100 µM, the TGI [21] was over 100 µM and the Activity [22] was 0%. It also gave a GI50 [23] of 36.3 µM, a TGI [23] of over 100 µM and a GI50 [24] of 25.7 µM. For the same molecule, the TGI [24] was 60.3 µM, the GI50 [25] was 33.9 µM and the TGI [25] was 100 µM. For the same molecule, the GI50 [26] was over 100 µM, the TGI [26] was over 100 µM and the GI50 [27] was 21.9 µM. For the same molecule, the TGI [27] was 45.7 µM, the TGI [28] was 64.6 µM and the GI50 [29] was 34.7 µM. For the same molecule, the TGI [29] was over 100 µM, the Activity [30] was 0% and the GI50 [31] was 12.3 µM. The TGI [31] was 45.7 µM, the GI50 [32] was 40.7 µM and the TGI [32] was over 100 µM. It also gave a GI50 [33] of 39.8 µM, a TGI [33] of over 100 µM and a GI50 [34] of over 100 µM. For the same molecule, the TGI [34] was over 100 µM, the GI50 [35] was 41.7 µM and the TGI [35] was over 100 µM.

`O=c1/c(=C/c2ccc(Cl)cc2)sc2ncnn12` showed a GI50 [1] of 16.6 µM, a TGI [1] of 31.6 µM and a GI50 [36] of 1.62 µM. For the same molecule, the TGI ([36]; read-out: Log TGI (converted)) was 8.71 µM, the GI50 [2] was 5.25 µM and the TGI [2] was 18.2 µM. The GI50 [3] was 11.2 µM, the TGI [3] was 26.9 µM and the GI50 [4] was 17.4 µM. For the same molecule, the TGI [4] was 44.7 µM, the GI50 [37] was 20 µM and the TGI ([37]; read-out: Log TGI (converted)) was 34.7 µM. For the same molecule, the GI50 [6] was 14.5 µM, the TGI [6] was 38.9 µM and the Activity [7] was 11%. It also gave a GI50 [8] of 14.5 µM, a TGI [8] of 29.5 µM and a GI50 [9] of 19.1 µM. For the same molecule, the TGI [9] was 43.7 µM, the GI50 [10] was 12 µM and the TGI [10] was 34.7 µM. For the same molecule, the GI50 [11] was 19.5 µM, the TGI [11] was 38.9 µM and the GI50 [12] was 12.3 µM. The TGI [12] was 33.1 µM, the GI50 [13] was 15.8 µM and the TGI [13] was 35.5 µM. The GI50 [38] was 20 µM, the TGI ([38]; read-out: Log TGI (converted)) was 55 µM and the GI50 [14] was 16.6 µM. The TGI [14] was 35.5 µM, the GI50 [15] was 5.37 µM and the TGI [15] was 18.6 µM. For the same molecule, the GI50 [39] was 7.59 µM, the TGI ([39]; read-out: Log TGI (converted)) was 28.8 µM and the GI50 [16] was 15.1 µM. For the same molecule, the TGI [16] was 58.9 µM, the GI50 [17] was 10.7 µM and the TGI [17] was 25.7 µM. For the same molecule, the GI50 [19] was 10.7 µM, the TGI [19] was 23.4 µM and the GI50 [20] was 2.95 µM. For the same molecule, the TGI [20] was 17.4 µM, the GI50 [21] was 13.2 µM and the TGI [21] was 26.3 µM. The Activity [22] was 3%, the GI50 [23] was 6.31 µM and the TGI [23] was 30.9 µM. For the same molecule, the GI50 [24] was 12.6 µM, the TGI [24] was 36.3 µM and the GI50 [25] was 0.355 µM. The TGI [25] was 20 µM, the GI50 [26] was 10.5 µM and the TGI [26] was 23.4 µM. The GI50 [27] was 15.1 µM, the TGI [27] was 35.5 µM and the GI50 [28] was 14.5 µM. For the same molecule, the TGI [28] was 33.9 µM, the GI50 [29] was 13.2 µM and the TGI [29] was 30.2 µM. The GI50 [40] was 18.2 µM, the TGI ([40]; read-out: Log TGI (converted)) was 32.4 µM and the Activity [30] was 10%. The GI50 [31] was 14.1 µM, the TGI [31] was 37.2 µM and the GI50 [32] was 13.5 µM. It also gave a TGI [32] of 30.2 µM, a GI50 [33] of 21.4 µM and a TGI [33] of over 100 µM. For the same molecule, the GI50 [34] was 29.5 µM, the TGI [34] was 55 µM and the GI50 [35] was 12.6 µM. For the same molecule, the TGI [35] was 26.9 µM.
